Tests used:
MC38-OVA tumor cells = assay: Murine MC38-OVA tumor model, intratumoral MgCl2 vs NaCl in bilateral tumors; format: in vivo, mice; details: for Tumor growth: 3 mM MgCl2 intratumoral vs 3 mM NaCl in contralateral tumor, every third day
Experimental: FIG. 1: Intratumoral magnesium administration improves adaptive anti-tumor immunity. (a) Schematic of experimental design. B1/6 mice, either immunized with OVA or left untreated, were inoculated subcutaneously with MC38-OVA tumor cells bilaterally on the flanks. From day 7, injection of 3 mM NaCl solution was applied in left flank tumor, whereas 3 mM MgCl2 solution was injected in contralateral tumor. This regimen was repeated every third day for a total of 8 cycles. (b) Tumor growth curves in non-immunized mice (n=20) (left panel), and immunized mice (n=19) (right panel). (c) Tumor growth curves in ±CD8 depleted mice (n=6-17). Results were pooled from 2 independent experiments, with n=6-12 mice each. (d) Absolute numbers of tumor-infiltrating CD8^+ T cells. (e) Number of tumor-infiltrating CD8^+ T cells positive for Ki67 (left panel), Granzyme B (middle panel) and CD25 (right panel). (f) Cell number of tumor-infiltrating CD8^+ T cells expressing PD-1 and Tim3. (g) Schematic of experimental design. B1/6 mice, immunized with OVA, were inoculated subcutaneously with MC38-OVA tumor cells unilaterally on the flank. From day 5, intratumoral injections of either 3 mM NaCl or 3 mM MgCl2 were initiated, and repeated every third day for 8 cycles. Mice were additionally injected with 200 μg i.p. of isotype control (IgG2a) or anti-PD-1 Ab on day 9, 12, and 15. (h) Tumor growth curves (n=13-14) and (i) host survival (n=13-14). Results were pooled from 2 independent experiments (b, h, i). Unless stated otherwise, 6 to 12 weeks old female mice were used for experiments. In assays with pre-immunized mice, mice were immunized 19 days before tumor implantation by subcutaneous injection of 100 μg of OVA protein (Invivogen) and 50 μg of CpG-B ODN 1826 (Eurogentec), resuspended in 100 μL of PBS. For tumor implantation, mice were inoculated subcutaneously onto the flanks with 0.5×10^6 MC38-OVA cells, resuspended in 100 μL of PBS. In bilateral tumor experiments, mice received 50 μL intra-tumoral injections of either 3 mM NaCl or 3 mM MgCl2 (both diluted in ddH2O). Injections of NaCl solution was applied in left flank tumor, whereas MgCl2 solution was injected in contralateral tumor. I.t. injections were initiated once tumors were palpable, usually between day 5 and 10 after tumor injection. Injections were repeated every third day. Tumor size was quantified using a caliper and tumor volume was calculated using a rational ellipse formula (α2×β×π6, α being the shorter axis and β the longer axis). […] Tumor tissue was isolated from mice, weighed and minced using razor blades. Tissue was then digested using accutase (PAA), collagenase IV (Worthington), hyaluronidase (Sigma), and DNAse type IV (Sigma) for 60 min at 37° C. with constant shaking. The cell suspensions were filtered using a cell strainer (70 μm). Precision Counting beads (Biolegend) were added before staining to quantify the number of cells per gram of tumor. Single cell suspensions were blocked with rat anti-mouse FcγIII/II receptor (CD16/CD32) blocking antibodies (‘Fc-block’) and stained with live/dead cell-exclusion dye. Cells were then incubated with fluorophore-conjugated antibodies directed against cell surface antigens, washed and resuspended in FACS buffer (PBS+2% FBS). For intracellular/intranuclear antigens, cells stained with cell surface antibodies were fixed and permeabilized using Foxp3/transcription factor staining buffer (eBioscience) prior to incubation with antibodies directed against intracellular antigens. CD8 T cells are essential for antitumor immunity. To explore the role of Mg^2+ in the tumor microenvironment, and specifically its functional impact on T cell immunity, we examined the effect of intratumoral (i.t.) Mg^2+ administration in the MC38-OVA tumor model. Specifically, mice were either immunized against ovalbumin (OVA) or left untreated before subcutaneous implantation of OVA-expressing MC38 colorectal carcinoma cells bilaterally on the flanks. […]

[1] = test system: WT and LFA-1^−/− Jurkat T cells; assay: Calcium flux assay in WT and LFA-1−/− Jurkat T cells; format: cell-based, human
Experimental: FIG. 3: Magnesium regulates LFA-1 mediated T cell activation and cytotoxicity as well BiTE- and CAR T-cell functionality. (a) Glycolytic switch of murine WT and LFA-1^−/− CTLs upon injection of anti-CD3/28 Ab in medium containing 1.2 mM Mg^2+ and 0 mM Mg^2+, presented as quantification of summarized data with n=4 mice. (b) Calcium flux in WT and LFA-1^−/− Jurkat T cells stimulated with anti-CD3 Ab in 1.2 mM and 0 mM Mg^2+ medium, respectively. Cells were loaded with Fluo4, and signal intensity as recorded by plate reader, was normalized to unstimulated baseline values. […] Quantified results of n=3 mice with 3 technical replicates each. […] The effector to target cell ratio was 3:1. Results are quantified of n=3 mice with 3 technical replicates each. (e) Representative CD11a (LFA-1) surface expression on human naïve and EM CD8 T cells, PHA T cell blasts and REP T cells, assessed by flow cytometry. […] The effector to target cell ratio was 1:1. Data is presented as quantified results of n=5 healthy donors (f, g, h), n=3 healthy donors with 2 technical replicates each or n=1 healthy donor with 4 technical replicates (j). […] The effector to target cell ratio was 1:1. Data is presented as quantified results of n=1 healthy donor with 4 technical replicates. […] (n) Representative histogram of CD11a expression on PHA-blasts, untransduced T cells as well anti-CD19 expressing CAR T cells. […] Pooled results of n=6 from 2 independent experiments are shown. (p) Abundance of IFNγ in cell culture supernatants corresponding to the conditions depicted in (o) at 24 hours was determined by ELISA (n=8, 3 independent experiments). (q) Tumor growth curves of mice placed on either Mg^2+-depleted diet or respective control diet and treated with either anti-PSMA CAR T cells, untransduced T cells or saline solution. Representative of n=2 independent experiments with n=6 mice per group. Jurkat T cells were loaded with Fluo4 (Invitrogen) at a final concentration of 2 μM in Mg^2+ free self-made medium for 30 min at 37° C. […] Fluorescence intensity over time was measure with a Tecan Spark M10 plate reader. […]

[2] = anti-CD3 Ab, 0 mM vs 1.2 mM Mg^2+

[Mg+2] [Mg^2+, Magnesium]
Tumor-infiltrating CD8^+ T cells expressing PD-1 and Tim3 (MC38-OVA tumor cells; Mg^2+ treated vs NaCl tumors): significantly more often (co-)expressed
Tumor-infiltrating CD8^+ T cells positive for CD25 (MC38-OVA tumor cells; Mg^2+ treated vs NaCl tumors): more
Tumor-infiltrating CD8^+ T cells positive for Granzyme B (MC38-OVA tumor cells; Mg^2+ treated vs NaCl tumors): more
Tumor-infiltrating CD8^+ T cells positive for Ki67 (MC38-OVA tumor cells; Mg^2+ treated vs NaCl tumors): more
Number of tumor-infiltrating CD8^+ T cells (MC38-OVA tumor cells; Mg^2+ treated vs NaCl tumors, flow cytometry): increased
Tumor growth (MC38-OVA tumor cells; OVA pre-immunized mice): significantly reduced tumor growth
Tumor growth (MC38-OVA tumor cells; non-immunized mice): comparable
Ca^2+ influx in LFA-1^−/− Jurkat T cells [1, 2]: independent from extracellular Mg^2+ concentrations
Ca^2+ influx in WT Jurkat T cells [1, 2]: decreased Ca^2+ influx
Prolonged, sustained Ca^2+ influx ([1]; extracellular Mg^2+ depletion): absence of prolonged, sustained Ca^2+ influx

Source: patent publication US20240010726A1, “LFA-1 SIGNALLING MEDIATOR FOR USE IN CANCER THERAPY” (Universität Basel, priority 2020, published 2024)
